Test results taken from ChEMBL document CHEMBL1150976, “The selectivity of protein kinase inhibitors: a further update” (Biochem J, 2007).

Key:
[1] = molecular target: T1, Serine/threonine-protein kinase TBK1 (Homo sapiens) (UniProt Q9UHD2); experiment: Percentage TBK1 activity remaining in the presence of 1uM inhibitor; details: filed as antagonist
T1 sequence (whole entry): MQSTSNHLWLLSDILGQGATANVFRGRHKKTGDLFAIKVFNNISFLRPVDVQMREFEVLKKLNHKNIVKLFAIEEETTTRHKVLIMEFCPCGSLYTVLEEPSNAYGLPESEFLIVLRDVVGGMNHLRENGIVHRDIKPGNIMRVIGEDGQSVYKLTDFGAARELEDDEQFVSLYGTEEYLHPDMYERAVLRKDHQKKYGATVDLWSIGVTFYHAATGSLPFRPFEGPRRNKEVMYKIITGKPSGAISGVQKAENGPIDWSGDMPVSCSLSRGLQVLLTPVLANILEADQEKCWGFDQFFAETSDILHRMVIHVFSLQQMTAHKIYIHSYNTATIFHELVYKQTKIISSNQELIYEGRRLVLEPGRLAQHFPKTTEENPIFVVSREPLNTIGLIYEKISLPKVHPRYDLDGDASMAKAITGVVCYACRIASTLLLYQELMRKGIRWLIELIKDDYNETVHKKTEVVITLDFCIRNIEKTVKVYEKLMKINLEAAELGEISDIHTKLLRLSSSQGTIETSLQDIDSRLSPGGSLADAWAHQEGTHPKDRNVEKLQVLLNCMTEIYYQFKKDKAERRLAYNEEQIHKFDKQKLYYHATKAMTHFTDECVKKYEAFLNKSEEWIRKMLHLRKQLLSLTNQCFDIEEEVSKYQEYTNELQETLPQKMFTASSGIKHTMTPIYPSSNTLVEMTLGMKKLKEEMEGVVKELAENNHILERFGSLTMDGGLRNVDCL

[2] = molecular target: T2, Inhibitor of nuclear factor kappa-B kinase subunit epsilon (Homo sapiens) (UniProt Q14164); experiment: Percentage IKKepsilon activity remaining in the presence of 1uM inhibitor
T2 sequence (whole entry): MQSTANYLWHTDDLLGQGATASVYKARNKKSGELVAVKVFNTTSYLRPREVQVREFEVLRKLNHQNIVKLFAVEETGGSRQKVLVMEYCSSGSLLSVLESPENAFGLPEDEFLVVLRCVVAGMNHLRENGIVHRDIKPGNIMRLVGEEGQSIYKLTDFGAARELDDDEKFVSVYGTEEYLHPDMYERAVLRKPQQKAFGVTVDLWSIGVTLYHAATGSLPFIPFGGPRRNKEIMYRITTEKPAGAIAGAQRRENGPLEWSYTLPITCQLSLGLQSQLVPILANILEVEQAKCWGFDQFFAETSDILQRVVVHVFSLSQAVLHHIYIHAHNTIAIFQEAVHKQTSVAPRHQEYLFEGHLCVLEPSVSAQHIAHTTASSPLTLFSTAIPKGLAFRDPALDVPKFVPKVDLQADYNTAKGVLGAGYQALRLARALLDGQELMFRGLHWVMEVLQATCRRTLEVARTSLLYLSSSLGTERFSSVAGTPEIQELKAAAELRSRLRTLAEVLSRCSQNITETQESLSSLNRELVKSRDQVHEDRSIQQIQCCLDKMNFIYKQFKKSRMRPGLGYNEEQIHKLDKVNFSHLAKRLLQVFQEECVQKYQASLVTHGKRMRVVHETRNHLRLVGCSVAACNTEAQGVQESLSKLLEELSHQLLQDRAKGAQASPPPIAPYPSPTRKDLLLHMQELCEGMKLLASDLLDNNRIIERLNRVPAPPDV

[3] = molecular target: T3, Serine/threonine-protein kinase Chk1 (Homo sapiens) (UniProt O14757); experiment: Percentage CHK1 activity remaining in the presence of 2uM inhibitor
T3 sequence (whole entry): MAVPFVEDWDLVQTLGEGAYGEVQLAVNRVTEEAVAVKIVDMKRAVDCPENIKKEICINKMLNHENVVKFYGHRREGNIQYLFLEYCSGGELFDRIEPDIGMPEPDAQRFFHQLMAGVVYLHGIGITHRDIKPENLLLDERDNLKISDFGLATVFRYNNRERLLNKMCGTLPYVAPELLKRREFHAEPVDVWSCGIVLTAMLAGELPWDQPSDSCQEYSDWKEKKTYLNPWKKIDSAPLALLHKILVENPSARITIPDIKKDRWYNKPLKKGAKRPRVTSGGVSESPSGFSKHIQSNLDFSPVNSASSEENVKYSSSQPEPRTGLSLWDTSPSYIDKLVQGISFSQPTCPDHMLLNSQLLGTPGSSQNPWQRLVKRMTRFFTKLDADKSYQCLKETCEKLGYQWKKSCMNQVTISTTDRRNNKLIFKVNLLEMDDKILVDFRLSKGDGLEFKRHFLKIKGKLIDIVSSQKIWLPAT

[4] = molecular target: Inhibitor of nuclear factor kappa-B kinase subunit beta (Homo sapiens, UniProt O14920)
Sequence of Inhibitor of nuclear factor kappa-B kinase subunit beta (O14920 whole entry): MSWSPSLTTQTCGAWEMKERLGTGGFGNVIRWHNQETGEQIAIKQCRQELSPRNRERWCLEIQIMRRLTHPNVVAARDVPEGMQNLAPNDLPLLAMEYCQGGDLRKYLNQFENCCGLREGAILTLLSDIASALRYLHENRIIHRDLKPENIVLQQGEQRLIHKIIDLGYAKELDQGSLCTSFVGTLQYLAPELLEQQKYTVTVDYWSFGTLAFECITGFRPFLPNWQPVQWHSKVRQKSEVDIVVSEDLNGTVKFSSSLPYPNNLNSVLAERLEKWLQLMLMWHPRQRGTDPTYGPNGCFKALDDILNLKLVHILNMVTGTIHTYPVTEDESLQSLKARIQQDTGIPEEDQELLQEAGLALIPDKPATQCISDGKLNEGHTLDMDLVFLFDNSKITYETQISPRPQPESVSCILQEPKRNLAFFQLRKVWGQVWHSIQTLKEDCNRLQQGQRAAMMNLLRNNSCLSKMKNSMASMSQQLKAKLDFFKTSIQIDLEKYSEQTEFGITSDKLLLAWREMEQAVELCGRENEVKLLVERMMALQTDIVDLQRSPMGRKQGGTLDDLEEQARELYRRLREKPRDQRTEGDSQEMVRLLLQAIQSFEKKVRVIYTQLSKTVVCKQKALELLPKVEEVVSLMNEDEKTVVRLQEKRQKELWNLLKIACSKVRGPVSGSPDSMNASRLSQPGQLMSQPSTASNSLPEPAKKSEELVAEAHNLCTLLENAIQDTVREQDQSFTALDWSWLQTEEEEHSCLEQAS

Aurora kinase C = Aurora kinase C (Homo sapiens, UniProt Q9UQB9); experiment: Inhibition of Aurora C in the presence of 5uM ATP
Sequence of Aurora kinase C (Q9UQB9 whole entry): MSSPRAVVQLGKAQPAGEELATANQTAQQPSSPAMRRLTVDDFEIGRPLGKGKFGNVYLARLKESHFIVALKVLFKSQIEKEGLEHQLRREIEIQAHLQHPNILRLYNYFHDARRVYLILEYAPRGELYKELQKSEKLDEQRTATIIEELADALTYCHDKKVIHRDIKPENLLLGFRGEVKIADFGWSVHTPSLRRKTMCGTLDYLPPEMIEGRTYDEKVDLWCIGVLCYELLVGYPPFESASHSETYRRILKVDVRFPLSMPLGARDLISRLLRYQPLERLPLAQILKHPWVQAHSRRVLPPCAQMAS

[5] = molecular target: T4, Receptor-interacting serine/threonine-protein kinase 2 (Homo sapiens, UniProt O43353); experiment: Inhibition of RIP2 in the presence of 100uM ATP
T4 sequence (O43353 whole entry): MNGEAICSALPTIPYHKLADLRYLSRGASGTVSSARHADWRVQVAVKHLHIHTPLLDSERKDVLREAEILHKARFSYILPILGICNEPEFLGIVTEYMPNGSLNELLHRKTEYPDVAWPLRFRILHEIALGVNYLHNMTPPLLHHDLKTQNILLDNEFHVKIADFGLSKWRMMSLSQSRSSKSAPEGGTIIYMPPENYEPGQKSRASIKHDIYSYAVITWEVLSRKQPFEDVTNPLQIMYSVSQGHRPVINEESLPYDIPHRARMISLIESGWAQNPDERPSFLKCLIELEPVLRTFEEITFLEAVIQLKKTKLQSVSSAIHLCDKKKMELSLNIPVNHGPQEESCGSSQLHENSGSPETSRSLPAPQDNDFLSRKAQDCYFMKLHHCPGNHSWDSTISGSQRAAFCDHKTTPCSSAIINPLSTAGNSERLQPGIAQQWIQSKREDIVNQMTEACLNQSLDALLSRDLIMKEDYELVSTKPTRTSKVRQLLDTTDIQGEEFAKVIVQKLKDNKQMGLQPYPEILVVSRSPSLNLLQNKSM

[6] = molecular target: Proto-oncogene tyrosine-protein kinase LCK (Mus musculus, UniProt P06240); experiment: Inhibition of Lck in the presence of 50uM ATP
Sequence of Proto-oncogene tyrosine-protein kinase LCK (P06240 whole entry): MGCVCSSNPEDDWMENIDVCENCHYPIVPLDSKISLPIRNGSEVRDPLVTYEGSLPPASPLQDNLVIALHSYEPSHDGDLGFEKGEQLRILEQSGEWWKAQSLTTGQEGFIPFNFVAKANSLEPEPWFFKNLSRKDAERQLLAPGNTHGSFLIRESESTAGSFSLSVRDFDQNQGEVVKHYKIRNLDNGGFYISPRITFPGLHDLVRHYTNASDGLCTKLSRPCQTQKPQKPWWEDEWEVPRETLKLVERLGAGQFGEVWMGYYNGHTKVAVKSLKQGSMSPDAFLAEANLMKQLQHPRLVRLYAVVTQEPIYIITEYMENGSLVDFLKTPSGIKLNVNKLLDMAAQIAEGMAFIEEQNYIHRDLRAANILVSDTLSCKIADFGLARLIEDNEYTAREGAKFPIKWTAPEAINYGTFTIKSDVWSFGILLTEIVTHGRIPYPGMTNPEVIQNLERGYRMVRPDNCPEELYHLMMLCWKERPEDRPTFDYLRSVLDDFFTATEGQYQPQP

[7] = molecular target: T4, Receptor-interacting serine/threonine-protein kinase 2; experiment: Percentage RIP2 activity remaining in the presence of 10uM inhibitor
[8] = molecular target: T5, Cyclin-G-associated kinase (Homo sapiens) (UniProt O14976); experiment: Percentage GAK activity remaining in the presence of 10uM inhibitor
T5 sequence (whole entry): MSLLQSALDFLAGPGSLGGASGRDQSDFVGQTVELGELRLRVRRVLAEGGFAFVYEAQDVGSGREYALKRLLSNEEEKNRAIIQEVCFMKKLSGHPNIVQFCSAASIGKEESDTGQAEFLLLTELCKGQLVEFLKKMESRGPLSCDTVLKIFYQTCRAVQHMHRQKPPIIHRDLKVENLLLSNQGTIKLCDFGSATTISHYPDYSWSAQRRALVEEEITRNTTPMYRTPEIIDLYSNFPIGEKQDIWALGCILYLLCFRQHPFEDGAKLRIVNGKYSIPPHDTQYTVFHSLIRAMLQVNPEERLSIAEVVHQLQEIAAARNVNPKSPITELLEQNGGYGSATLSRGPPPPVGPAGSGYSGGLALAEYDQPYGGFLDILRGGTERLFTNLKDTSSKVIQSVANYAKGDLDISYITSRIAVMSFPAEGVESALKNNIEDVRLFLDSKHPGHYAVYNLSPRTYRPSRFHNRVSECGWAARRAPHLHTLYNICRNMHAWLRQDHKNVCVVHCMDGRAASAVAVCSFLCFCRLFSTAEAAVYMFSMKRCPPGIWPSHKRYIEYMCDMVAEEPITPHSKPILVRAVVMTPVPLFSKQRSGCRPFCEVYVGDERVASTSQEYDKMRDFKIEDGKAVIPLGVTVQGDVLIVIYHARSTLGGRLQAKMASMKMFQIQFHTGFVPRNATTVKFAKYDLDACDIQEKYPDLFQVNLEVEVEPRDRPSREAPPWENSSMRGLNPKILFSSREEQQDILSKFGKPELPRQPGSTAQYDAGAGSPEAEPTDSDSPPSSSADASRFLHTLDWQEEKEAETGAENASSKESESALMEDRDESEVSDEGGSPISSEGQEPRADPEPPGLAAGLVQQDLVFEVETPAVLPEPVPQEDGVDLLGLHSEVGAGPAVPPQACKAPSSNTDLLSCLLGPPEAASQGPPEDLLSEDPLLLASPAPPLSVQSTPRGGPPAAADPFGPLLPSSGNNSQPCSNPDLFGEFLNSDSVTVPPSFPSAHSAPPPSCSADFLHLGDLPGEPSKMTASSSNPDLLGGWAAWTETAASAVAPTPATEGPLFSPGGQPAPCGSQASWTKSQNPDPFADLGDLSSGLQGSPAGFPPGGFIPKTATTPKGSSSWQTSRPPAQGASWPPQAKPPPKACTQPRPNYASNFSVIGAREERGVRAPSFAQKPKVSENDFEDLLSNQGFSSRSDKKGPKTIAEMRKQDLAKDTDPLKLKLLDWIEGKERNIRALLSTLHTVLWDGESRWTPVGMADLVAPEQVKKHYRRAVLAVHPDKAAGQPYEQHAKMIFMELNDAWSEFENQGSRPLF

[9] = molecular target: Mitogen-activated protein kinase 8 (Homo sapiens, UniProt P45983, M108A); experiment: Inhibition of JNK-M108A in the presence of 20uM ATP
Sequence of Mitogen-activated protein kinase 8 (Homo sapiens, UniProt P45983, M108A) (P45983 whole entry M108A): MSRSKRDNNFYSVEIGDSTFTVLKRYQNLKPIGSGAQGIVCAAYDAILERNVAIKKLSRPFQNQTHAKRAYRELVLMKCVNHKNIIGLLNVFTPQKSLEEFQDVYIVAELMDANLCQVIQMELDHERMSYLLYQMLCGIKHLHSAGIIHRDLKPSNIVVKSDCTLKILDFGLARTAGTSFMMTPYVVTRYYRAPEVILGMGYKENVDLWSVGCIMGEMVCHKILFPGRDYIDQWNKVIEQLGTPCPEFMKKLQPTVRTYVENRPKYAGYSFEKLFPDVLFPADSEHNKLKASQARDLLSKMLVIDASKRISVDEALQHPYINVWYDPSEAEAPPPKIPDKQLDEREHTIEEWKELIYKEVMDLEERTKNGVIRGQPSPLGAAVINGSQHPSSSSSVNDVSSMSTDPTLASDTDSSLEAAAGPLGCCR

[10] = molecular target: Proto-oncogene tyrosine-protein kinase Src (Gallus gallus, UniProt P00523); experiment: Inhibition of Src in the presence of 50uM ATP
[11] = molecular target: Mitogen-activated protein kinase 8 (Homo sapiens, UniProt P45983, M108G); experiment: Inhibition of JNK-M108G in the presence of 20uM ATP
Sequence of Mitogen-activated protein kinase 8 (Homo sapiens, UniProt P45983, M108G) (P45983 whole entry M108G): as the sequence (P45983 whole entry M108A) above, with A108G counted along it

[12] = molecular target: T3, Serine/threonine-protein kinase Chk1 (Homo sapiens); experiment: Percentage CHK1 activity remaining in the presence of 25uM inhibitor
[13] = molecular target: Serine/threonine-protein kinase pim-1 (Homo sapiens, UniProt P11309); experiment: Inhibition of PIM1 in the presence of 20uM ATP
Sequence of Serine/threonine-protein kinase pim-1 (P11309 whole entry): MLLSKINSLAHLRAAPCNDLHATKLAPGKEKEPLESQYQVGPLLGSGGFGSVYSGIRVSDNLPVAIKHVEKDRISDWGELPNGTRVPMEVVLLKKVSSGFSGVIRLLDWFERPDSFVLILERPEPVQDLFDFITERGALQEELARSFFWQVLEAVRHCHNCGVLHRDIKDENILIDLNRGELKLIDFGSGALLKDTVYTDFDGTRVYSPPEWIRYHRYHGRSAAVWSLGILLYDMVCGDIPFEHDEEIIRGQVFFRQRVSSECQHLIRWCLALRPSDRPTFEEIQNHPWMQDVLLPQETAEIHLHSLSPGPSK

[14] = molecular target: Serine/threonine-protein kinase pim-3 (Homo sapiens, UniProt Q86V86); experiment: Inhibition of PIM3 in the presence of 20uM ATP
[15] = molecular target: T5, Cyclin-G-associated kinase (Homo sapiens); experiment: Percentage GAK activity remaining in the presence of 1uM inhibitor
[16] = molecular target: T4, Receptor-interacting serine/threonine-protein kinase 2; experiment: Percentage RIP2 activity remaining in the presence of 1uM inhibitor; details: filed as antagonist

## CC(C)(C(N)=O)C(=O)NCCCNc1nc(Nc2cccc(NC(=O)N3CCCC3)c2)ncc1Br
[1]
  Activity: 32%
[2]; filed as antagonist
  Activity: 37%
[3]
  Activity: 71%

## NC(=O)c1sc(-c2ccsc2)cc1N
[4]
  IC50: 2000 nM (antagonist)

## Cc1[nH]c(/C=C2\C(=O)Nc3ccccc32)c(C)c1CCC(=O)O [ORANTINIB]
[1]
  Activity: 34%
Aurora kinase C
  IC50: 210 nM (antagonist)
[2]
  Activity: 51%

## Cc1ccc(NC(=O)c2cccc(N(C)C)c2)cc1NC(=O)c1ccc(O)cc1
[5]
  IC50: > 100000 nM (antagonist)
[6]
  IC50: 570 nM (antagonist)
[7]
  Activity: 92%
[8]
  Activity: 83%

## CC(C)(C)n1nc(-c2cccc3ccccc23)c2c(N)ncnc21
[5]
  IC50: 120 nM (antagonist)
[6]
  IC50: 660 nM (antagonist)
[9]
  IC50: 270 nM (antagonist)
[10]
  IC50: 340 nM (antagonist)
[11]
  IC50: 620 nM (antagonist)

## Cc1cnc(-c2cnc(NCCNc3ccc(C#N)cn3)nc2-c2ccc(Cl)cc2Cl)[nH]1
[12]
  Activity: 97%

## c1cc(-c2cnn3cc(-c4ccc(OCCN5CCCCC5)cc4)cnc23)ccn1
[1]
  Activity: 45%
[2]
  Activity: 51%

## O=C(Nc1cc(Cl)cc2c1[nH]c1cnccc12)c1cccnc1
[4]
  IC50: 250 nM (antagonist)
[13]
  IC50: 1100 nM (antagonist)
[14]
  IC50: 880 nM (antagonist)

## Oc1ccc(-c2nc(-c3ccc(F)cc3)c(-c3ccncc3)[nH]2)cc1
[15]; filed as antagonist
  Activity: 0%
[16]
  Activity: 7%

## COc1cc2ncnc(Nc3ccc(Oc4ccccc4)cc3)c2cc1OC
[5]
  IC50: 26 nM (antagonist)
[15]
  Activity: 79%
[10]
  IC50: 180 nM (antagonist)
[16]
  Activity: 9%
